Assay results: PubChem BioAssay (NCI)
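Tested at 5 concentrations; 48 h exposure; 96-well plates; endpoints linearly interpolated, else capped at highest concentration. At the GI50, growth is halved. TGI: concentration producing complete growth inhibition.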

Experiments:
Experiment in all cases: NCI-60 cell line screen, 48 h
786-0 renal = system: 786-0 renal
A498 renal = system: A498 renal
A549 NSCLC = system: A549 NSCLC
ACHN renal = system: ACHN renal
BT-549 breast = system: BT-549 breast
CAKI-1 renal = system: CAKI-1 renal
CCRF-CEM leukemia = system: CCRF-CEM leukemia
COLO 205 colon = system: COLO 205 colon
DU-145 prostate = system: DU-145 prostate
EKVX NSCLC = system: EKVX NSCLC
HCC-2998 colon = system: HCC-2998 colon
HCT-116 colon = system: HCT-116 colon
HCT-15 colon = system: HCT-15 colon
HL-60(TB) leukemia = system: HL-60(TB) leukemia
HOP-62 NSCLC = system: HOP-62 NSCLC
HOP-92 NSCLC = system: HOP-92 NSCLC
HS 578T breast = system: HS 578T breast
HT29 colon = system: HT29 colon
IGROV1 ovarian = system: IGROV1 ovarian
K-562 leukemia = system: K-562 leukemia
KM12 colon = system: KM12 colon
LOX IMVI melanoma = system: LOX IMVI melanoma
M14 melanoma = system: M14 melanoma
MALME-3M melanoma = system: MALME-3M melanoma
MCF7 breast = system: MCF7 breast
MDA-MB-231 breast = system: MDA-MB-231 breast
MDA-MB-435 = system: MDA-MB-435
MOLT-4 leukemia = system: MOLT-4 leukemia
NCI-H226 lung = system: NCI-H226 lung
NCI-H23 lung = system: NCI-H23 lung
NCI-H460 lung = system: NCI-H460 lung
NCI-H522 lung = system: NCI-H522 lung
NCI/ADR-RES ovarian = system: NCI/ADR-RES ovarian
OVCAR-3 ovarian = system: OVCAR-3 ovarian
OVCAR-4 ovarian = system: OVCAR-4 ovarian
OVCAR-5 ovarian = system: OVCAR-5 ovarian
OVCAR-8 ovarian = system: OVCAR-8 ovarian
PC-3 prostate = system: PC-3 prostate
RPMI-8226 leukemia = system: RPMI-8226 leukemia
RXF 393 renal = system: RXF 393 renal
SF-268 CNS = system: SF-268 CNS
SF-295 CNS = system: SF-295 CNS
SF-539 CNS = system: SF-539 CNS
SK-MEL-2 melanoma = system: SK-MEL-2 melanoma
SK-MEL-28 melanoma = system: SK-MEL-28 melanoma
SK-MEL-5 melanoma = system: SK-MEL-5 melanoma
SN12C renal = system: SN12C renal
SNB-19 CNS = system: SNB-19 CNS
SNB-75 CNS = system: SNB-75 CNS
SR leukemia = system: SR leukemia
SW-620 colon = system: SW-620 colon
T-47D breast = system: T-47D breast
TK-10 renal = system: TK-10 renal
U251 CNS = system: U251 CNS
UACC-257 melanoma = system: UACC-257 melanoma
UACC-62 melanoma = system: UACC-62 melanoma
UO-31 renal = system: UO-31 renal

N#Cc1cc(S(=O)(=O)Nc2nc3ccccc3s2)c(SCc2ccccc2)cc1Cl
GI50 (786-0 renal): 19.3 µM | TGI (786-0 renal): 39.9 µM | GI50 (A498 renal): 20.3 µM | TGI (A498 renal): 45.8 µM | GI50 (A549 NSCLC): 15.4 µM | TGI (A549 NSCLC): 35.3 µM | GI50 (ACHN renal): 24.7 µM | TGI (ACHN renal): 75 µM | GI50 (BT-549 breast): 20 µM | TGI (BT-549 breast): 48.9 µM | GI50 (CAKI-1 renal): 18.6 µM | TGI (CAKI-1 renal): 45 µM | GI50 (CCRF-CEM leukemia): 28.5 µM | TGI (CCRF-CEM leukemia): 94.6 µM | GI50 (COLO 205 colon): 26.5 µM | TGI (COLO 205 colon): 88.6 µM | GI50 (DU-145 prostate): 24.4 µM | TGI (DU-145 prostate): 58.6 µM | GI50 (EKVX NSCLC): 17.1 µM | TGI (EKVX NSCLC): 34.5 µM | GI50 (HCC-2998 colon): 17.7 µM | TGI (HCC-2998 colon): 36.3 µM | GI50 (HCT-116 colon): 16.1 µM | TGI (HCT-116 colon): 32.5 µM | GI50 (HCT-15 colon): 28.5 µM | TGI (HCT-15 colon): 66.4 µM | GI50 (HL-60(TB) leukemia): 51.5 µM | TGI (HL-60(TB) leukemia): > 100 µM | GI50 (HOP-62 NSCLC): 24.5 µM | TGI (HOP-62 NSCLC): 45.7 µM | GI50 (HOP-92 NSCLC): 24.1 µM | TGI (HOP-92 NSCLC): 43.3 µM | GI50 (HS 578T breast): 22.4 µM | TGI (HS 578T breast): 53.8 µM | GI50 (HT29 colon): 23.6 µM | TGI (HT29 colon): 55.8 µM | GI50 (IGROV1 ovarian): 18.1 µM | TGI (IGROV1 ovarian): 46.6 µM | GI50 (K-562 leukemia): 38.5 µM | TGI (K-562 leukemia): > 100 µM | GI50 (KM12 colon): 19.8 µM | TGI (KM12 colon): 46.7 µM | GI50 (LOX IMVI melanoma): 20.8 µM | TGI (LOX IMVI melanoma): 48.2 µM | GI50 (M14 melanoma): 18.9 µM | TGI (M14 melanoma): 37.1 µM | GI50 (MALME-3M melanoma): 21.4 µM | TGI (MALME-3M melanoma): 49.6 µM | GI50 (MCF7 breast): 30.7 µM | TGI (MCF7 breast): > 100 µM | GI50 (MDA-MB-231 breast): 26.7 µM | TGI (MDA-MB-231 breast): 82.6 µM | GI50 (MDA-MB-435): 23.8 µM | TGI (MDA-MB-435): 49.5 µM | GI50 (MOLT-4 leukemia): 27.4 µM | TGI (MOLT-4 leukemia): 74.4 µM | GI50 (NCI-H226 lung): 31 µM | TGI (NCI-H226 lung): 94.3 µM | GI50 (NCI-H23 lung): 22.4 µM | TGI (NCI-H23 lung): 57.7 µM | GI50 (NCI-H460 lung): 18.4 µM | TGI (NCI-H460 lung): > 100 µM | GI50 (NCI-H522 lung): 11.3 µM | TGI (NCI-H522 lung): 32.3 µM | GI50 (NCI/ADR-RES ovarian): 30.6 µM | TGI (NCI/ADR-RES ovarian): > 100 µM | GI50 (OVCAR-3 ovarian): 22.3 µM | TGI (OVCAR-3 ovarian): 59.5 µM | GI50 (OVCAR-4 ovarian): 34.4 µM | TGI (OVCAR-4 ovarian): > 100 µM | GI50 (OVCAR-5 ovarian): 23.8 µM | TGI (OVCAR-5 ovarian): 54.7 µM | GI50 (OVCAR-8 ovarian): 6.12 µM | TGI (OVCAR-8 ovarian): 39.8 µM | GI50 (PC-3 prostate): 23.1 µM | TGI (PC-3 prostate): 51.1 µM | GI50 (RPMI-8226 leukemia): 27.9 µM | TGI (RPMI-8226 leukemia): > 100 µM | GI50 (RXF 393 renal): 20.6 µM | TGI (RXF 393 renal): 45.4 µM | GI50 (SF-268 CNS): 24.7 µM | TGI (SF-268 CNS): 78.5 µM | GI50 (SF-295 CNS): 13.6 µM | TGI (SF-295 CNS): 44.1 µM | GI50 (SF-539 CNS): 17.4 µM | TGI (SF-539 CNS): 34.8 µM | GI50 (SK-MEL-2 melanoma): 15.3 µM | TGI (SK-MEL-2 melanoma): 36.8 µM | GI50 (SK-MEL-28 melanoma): 28.8 µM | TGI (SK-MEL-28 melanoma): 87.8 µM | GI50 (SK-MEL-5 melanoma): 15.4 µM | TGI (SK-MEL-5 melanoma): 31 µM | GI50 (SN12C renal): 19.2 µM | TGI (SN12C renal): 41.5 µM | GI50 (SNB-19 CNS): 20.1 µM | TGI (SNB-19 CNS): 47.7 µM | GI50 (SNB-75 CNS): 26.2 µM | TGI (SNB-75 CNS): 63.3 µM | GI50 (SR leukemia): 37.7 µM | TGI (SR leukemia): > 100 µM | GI50 (SW-620 colon): 19.8 µM | TGI (SW-620 colon): 43.7 µM | GI50 (T-47D breast): 22.8 µM | TGI (T-47D breast): 73.7 µM | GI50 (TK-10 renal): 37.3 µM | TGI (TK-10 renal): 97.5 µM | GI50 (U251 CNS): 19.2 µM | TGI (U251 CNS): 38.2 µM | GI50 (UACC-257 melanoma): 15.4 µM | TGI (UACC-257 melanoma): 35.2 µM | GI50 (UACC-62 melanoma): 11.8 µM | TGI (UACC-62 melanoma): 29.5 µM | GI50 (UO-31 renal): 17.8 µM | TGI (UO-31 renal): 42.1 µM
